Values of other authors as cited in patent publication US20100273186A1, “SPLIT MUTANT HYDROLASE FUSION REPORTER AND USES THEREOF” (Promega Corporation, priority 2007, published 2010).

Tested on: Photinus pyralis luciferase

LRRASLG
reduction of activity on addition of cyclic AMP dependent protein kinase catalytic subunit (Waud et al.): 30%

RRFS: Photinus pyralis luciferase mutant, V217R generating site RRFS (SEQ ID NO:11), Sala-Newby et al.
decrease of activity when phosphorylated (Sala-Newby et al.): up to 80%
